# Measured values from article PMC8035258 (ChemMedChem, 2021).
# Like-named read-outs stand apart in the source and are kept apart here.
# Legend:
# [1] = molecular target: Mitochondrial respiratory complex II (Mus musculus, UniProt Q8K2B3+Q9CQA3+Q9CXV1+Q9CZB0); assay: Complex II inhibition assay; type: biochemical; conditions: for inhibition at 100 µM: read-out: % Inhibition CII (100 μM), 100 μM; for inhibition at 100 µM / % Inhibition CII (100 μM): mouse liver mitochondria, mean ±SD of n = 4
# [2] = tested on: 22Rv1 prostate cancer cells; assay: MTS cytotoxicity assay in 22Rv1 prostate cancer cells; type: cell-based; conditions: for reduction of 22Rv1 cell viability: 100 μM, 48 hr treatment, MTS
# [3] = tested on: low tumorigenic human endothelial kidney (HEK293) cells; assay: MTS cytotoxicity assay in HEK293 cells; type: cell-based; conditions: read-out: HEK293 IC50
# TNBC MDA-MB-468 cells = assay: MTS cytotoxicity assay in MDA-MB-468 cells; type: cell-based; conditions: for SI (Selectivity Index): MDA-MB-468 over HEK293 cells; for IC50: read-out: MDA-MB-468 IC50, 72 hours, mean ±SD of n=3
# CII = conditions: read-out: CII IC50, cited from earlier work
# Chain of Mitochondrial respiratory complex II (Q8K2B3 43-664): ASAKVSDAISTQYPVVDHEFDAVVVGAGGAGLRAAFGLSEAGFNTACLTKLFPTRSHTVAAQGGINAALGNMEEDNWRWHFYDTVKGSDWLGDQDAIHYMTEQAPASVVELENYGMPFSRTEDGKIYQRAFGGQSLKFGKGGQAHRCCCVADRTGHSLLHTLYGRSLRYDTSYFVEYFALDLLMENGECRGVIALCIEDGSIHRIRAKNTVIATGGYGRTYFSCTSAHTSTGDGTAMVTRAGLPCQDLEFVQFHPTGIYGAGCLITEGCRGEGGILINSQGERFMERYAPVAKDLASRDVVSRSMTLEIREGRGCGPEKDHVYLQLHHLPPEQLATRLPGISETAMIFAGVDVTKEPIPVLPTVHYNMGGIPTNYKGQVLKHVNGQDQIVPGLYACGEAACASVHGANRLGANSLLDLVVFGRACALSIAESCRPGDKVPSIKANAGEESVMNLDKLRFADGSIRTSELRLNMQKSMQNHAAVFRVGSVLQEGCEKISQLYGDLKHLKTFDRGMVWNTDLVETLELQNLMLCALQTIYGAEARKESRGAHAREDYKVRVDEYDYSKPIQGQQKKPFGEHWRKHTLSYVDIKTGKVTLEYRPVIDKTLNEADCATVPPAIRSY
# Chain of Mitochondrial respiratory complex II (Q9CQA3 31-282): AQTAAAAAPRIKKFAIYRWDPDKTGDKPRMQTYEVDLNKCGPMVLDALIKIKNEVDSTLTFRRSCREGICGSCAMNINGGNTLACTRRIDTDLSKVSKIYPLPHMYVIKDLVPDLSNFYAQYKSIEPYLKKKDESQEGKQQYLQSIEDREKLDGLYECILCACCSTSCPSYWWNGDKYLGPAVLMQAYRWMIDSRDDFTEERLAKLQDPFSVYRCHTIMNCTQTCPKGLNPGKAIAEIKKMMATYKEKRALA
# Chain of Mitochondrial respiratory complex II (Q9CZB0 30-169): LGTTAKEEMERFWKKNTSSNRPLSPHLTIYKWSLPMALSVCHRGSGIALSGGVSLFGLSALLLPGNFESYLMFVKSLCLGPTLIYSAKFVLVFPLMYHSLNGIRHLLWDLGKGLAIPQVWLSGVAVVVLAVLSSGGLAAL
# Chain of Mitochondrial respiratory complex II (Q9CXV1 57-159): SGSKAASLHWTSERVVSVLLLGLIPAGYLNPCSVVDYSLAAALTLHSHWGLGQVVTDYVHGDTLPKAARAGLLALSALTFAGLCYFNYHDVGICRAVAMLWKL
inhibition at 100 µM [1],SMILES,reduction of 22Rv1 cell viability [2],"IC50 ([3]; Homo sapiens, HEK293, 72 h)",SI (Selectivity Index) (TNBC MDA-MB-468 cells),also measured
44 ± 12.3%,"COc1ccccc1CNC1=NS(=O)(=O)c2cc(Br)ccc2N1 [Compound 26c, 7-Bromo-3-((2-methoxybenzyl)amino)-4H-benzo[e][1,2,4]thiadiazine 1,1-dioxide]",–,54.4 ± 4.2 µM,4,–
21%,"O=S1(=O)N=C(NCc2ccc(OC(F)(F)F)cc2)Nc2ccc(Br)cc21 [Compound 30c, 7-Bromo-3-((4-(trifluoromethoxy)benzyl)amino)-4H-benzo[e][1,2,4] thiadiazine 1,1-dioxide]",45%,52.9 ± 1.8 µM,2.93,% Inhibition CII (100 μM) [1]: 22 ±21.1%; IC50 (TNBC MDA-MB-468 cells): 18 ± 1.4 µM
27 ± 5.6%,"COc1ccccc1CNC1=NS(=O)(=O)c2cc(F)ccc2N1 [Compound 26a, 7-Fluoro-3-((2-methoxybenzyl)amino)-4H-benzo[e][1,2,4]thiadiazine 1,1-dioxide]",–,47.6 ± 2 µM,3.03,–
38 ± 7.8%,"C=CCNC1=NS(=O)(=O)c2cc(F)ccc2N1 [Compound 32a, 3-(Allylamino)-7-fluoro-4H-benzo[e][1,2,4]thiadiazine 1,1-dioxide]",24%,–,–,–
25 ± 19%,"O=S1(=O)N=C(NCCc2c[nH]c3ccccc23)Nc2cc(Cl)ccc21 [Compound 36b, 3-((2-(1H-indol-3-yl)ethyl)amino)-6-chloro-4H-benzo[e][1,2,4]thiadiazine 1,1-dioxide]",–,41.3 ± 5.2 µM,2.66,–
17 ± 8.2%,"O=S1(=O)N=C(NCCc2c[nH]c3ccccc23)Nc2ccc(F)cc21 [Compound 36a, 3-((2-(1H-indol-3-yl)ethyl)amino)-7-fluoro-4H-benzo[e][1,2,4]thiadiazine 1,1-dioxide]",30%,–,–,–
45 ± 17.1%,"O=S1(=O)N=C(NCCc2ccc(F)cc2)Nc2ccc(Br)cc21 [Compound 33c, 7-Bromo-3-((4-fluorophenethyl)amino)-4H-benzo[e][1,2,4]thiadiazine 1,1-dioxide]",–,48.7 ± 12 µM,2.42,–
18 ± 6.2%,"COc1ccc(CCNC2=NS(=O)(=O)c3cc(F)ccc3N2)cc1 [Compound 39a, 7-Fluoro-3-((4-methoxyphenethyl)amino)-4H-benzo[e][1,2,4]thiadiazine 1,1-dioxide]",–,123 ± 21.4 µM,3.27,–
7 ± 6.2%,"O=S1(=O)N=C(NCc2ccc(OC(F)(F)F)cc2)Nc2ccccc21 [Compound 30d, 3-((4-(Trifluoromethoxy)benzyl)amino)-4H-benzo[e][1,2,4]thiadiazine 1,1-dioxide]",approximately 30%,–,–,–
0%,"CC(C)NC1=NS(=O)(=O)c2ccccc2N1C [Compound 43d, 3-(Isopropylamino)-4-methyl-4H-benzo[e][1,2,4]thiadiazine 1,1-dioxide]",–,–,–,–

# The next lines start with the molecule.
SMILES,inhibition at 100 µM [1],reduction of 22Rv1 cell viability [2],"IC50 ([3]; Homo sapiens, HEK293, 72 h)",SI (Selectivity Index) (TNBC MDA-MB-468 cells),also measured
"CC(NC1=NS(=O)(=O)c2cc(Br)ccc2N1)c1ccccc1 (stereo not shown) [Compound 24c, 7-Bromo-3-((1-phenylethyl)amino)-4H-benzo[e][1,2,4]thiadiazine 1,1-dioxide]",55 ± 8.2%,70%,32.2 ± 1.5 µM,11,"IC50 [1]: 79.8 ± 4.1 µM; IC50 ([2]; Homo sapiens, 22Rv1, read-out: 22Rv1 IC50): 38.9 ± 3.2 µM"
"O=S1(=O)N=C(NCc2ccc(C(F)(F)F)cc2)Nc2cc(Cl)ccc21 [Compound 25b, 6-Chloro-3-((4-(trifluoromethyl)benzyl)amino)-4Hbenzo[e][1,2,4]thia-d iazine 1,1-dioxide]",–,–,–,–,% Inhibition CII (100 μM) [1]: 19 ±10.1%; IC50 (TNBC MDA-MB-468 cells): 25.1 ± 3.8 µM
"COc1ccc(CNC2=NS(=O)(=O)c3cc(Br)ccc3N2)cc1 [Compound 20c, 7-Bromo-3-((4-methoxybenzyl)amino)-4H-benzo[e][1,2,4]thiadiazine 1,1-dioxide]",64 ± 15.3%,41%,88 ± 12.3 µM,3.23,IC50 [1]: 79.7 ± 4 µM
"O=C(CC(=O)C(F)(F)F)c1cccs1 [TFFA, Thenoyltrifluoroacetone]",–,–,–,–,IC50 (CII; control compound in CII assays): 30 µM
"CC(NC1=NS(=O)(=O)c2cc(F)ccc2N1)c1ccccc1 (stereo not shown) [Compound 24a, 7-Fluoro-3-((1-phenylethyl)amino)-4H-benzo[e][1,2,4]thiadiazine 1,1-dioxide]",22 ± 9.9%,34%,42.6 ± 5.9 µM,10.2,–
"CC(NC1=NS(=O)(=O)c2ccccc2N1)c1ccccc1 (stereo not shown) [Compound 24d, 3-((1-Phenylethyl)amino)-4H-benzo[e][1,2,4]thiadiazine 1,1-dioxide]",0%,approximately 30%,48.6 ± 1.7 µM,3.92,–
"CC(C)C(C)NC1=NS(=O)(=O)c2cc(Br)ccc2N1 (stereo not shown) [Compound 15c, 7-Bromo-3-((3-methylbutan-2-yl)amino)-4Hbenzo[e][1,2,4]thiadiazine 1,1-dioxide]",19 ± 10.4%,–,35.7 ± 1.6 µM,1.75,–
O=C(O)CC(=O)O [Malonate],–,–,–,–,IC50 (CII; competitive CII inhibitor): 40 µM
"O=S1(=O)N=C(NCCCc2ccccc2)Nc2ccc(F)cc21 [Compound 23a, 7-Fluoro-3-((3-phenylpropyl)amino)-4H-benzo[e][1,2,4]thiadiazine 1,1-dioxide]",14 ± 10.4%,–,181 ± 7.3 µM,3.12,–
"Cc1c(C)c2c(c(C)c1OC(=O)CCC(=O)O)CC[C@@](C)(CCC[C@H](C)CCC[C@H](C)CCCC(C)C)O2 [α-TOS, α -Tocopheryl succinate]",–,–,–,–,IC50 (CII): 42 µM
"O=S1(=O)N=C(NCCc2ccccc2)Nc2ccc(Br)cc21 [Compound 18c, 7-Bromo-3-(phenethylamino)-4H-benzo[e][1,2,4]thiadiazine 1,1-dioxide]",37 ± 4.7%,–,63.1 ± 1.8 µM,3.4,–
"O=S1(=O)N=C(NCc2ccc(Cl)cc2)Nc2ccc(Br)cc21 [Compound 16c, 7-Bromo-3-((4-chlorobenzyl)amino)-4H-benzo[e][1,2,4]thiadiazine 1,1-dioxide dioxide]",–,–,–,–,"% Inhibition CII (100 μM) [1]: 45 ±5.6%; IC50 ([3]; 72 hours, mean ±SD of n=3): 43.1 ± 3.2 µM; IC50 (TNBC MDA-MB-468 cells): 12.5 ± 0.3 µM"
"O=S1(=O)N=C(NC2CCCC2)Nc2cc(Cl)ccc21 [Compound 22b, 6-Chloro-3-(cyclopentylamino)-4H-benzo[e][1,2,4]thiadiazine 1,1-dioxide]",–,34%,–,–,–
"O=S1(=O)N=C(NCc2ccc(C(F)(F)F)cc2)Nc2ccc(Br)cc21 [Compound 25c, 7-Bromo-3-((4-(trifluoromethyl)benzyl)amino)-4H-benzo[e][1,2,4]thiadiazine 1,1-dioxide]",–,34%,57.5 ± 4.7 µM,–,–
"O=S1(=O)N=C(NCc2ccc(Cl)cc2)Nc2cc(Cl)ccc21 [Compound 16b, 6-Chloro-3-((4-chlorobenzyl)amino)-4H-benzo[e][1,2,4]thiadiazine 1,1-dioxide]",–,10%,–,–,–
"O=S1(=O)NC(=S)Nc2cc(Cl)ccc21 [Compound 12b, 6-Chloro-3-thioxo-3,4-dihydro-2H-1,2,4-benzothiadiazine 1,1-dioxide]",81 ± 6.9%,12%,–,–,IC50 [1]: 11.9 ± 3.3 µM
"CC(NC1=NS(=O)(=O)c2ccc(Cl)cc2N1)c1ccccc1 (stereo not shown) [Compound 24b, 6-Chloro-3-((1-phenylethyl)amino)-4H-benzo[e][1,2,4]thiadiazine 1,1-dioxide]",51 ± 13.9%,50%,118 ± 22.3 µM,2.72,IC50 [1]: 89 ± 10.4 µM
"O=S1(=O)N=C(NCCCc2ccccc2)Nc2ccc(Br)cc21 [Compound 23c, 7-Bromo-3-((3-phenylpropyl)amino)-4H-benzo[e][1,2,4]thiadiazine 1,1-dioxide]",47%,42%,71.8 ± 8.2 µM,7.75,% Inhibition CII (100 μM) [1]: 46 ±13.4%
"O=S1(=O)NC(=S)Nc2ccc(Br)cc21 [Compound 12c, 7-Bromo-3-thioxo-3,4-dihydro-2H-1,2,4-benzothiadiazine 1,1-dioxide]",55 ± 15.2%,16%,–,–,IC50 [1]: 37 ± 2.4 µM
"O=S1(=O)NC(=S)Nc2ccc(F)cc21 [Compound 12a, 7-Fluoro-3-thioxo-3,4-dihydro-2H-1,2,4-benzothiadiazine 1,1-dioxide]",0%,–,–,–,–
"CC(C)NC1=NS(=O)(=O)c2ccccc2N1 [Compound 14d, 3-(Isopropylamino)-4H-benzo[e][1,2,4]thiadiazine 1,1-dioxide]",0%,–,–,–,–
"O=S1(=O)N=C(NCCCc2ccccc2)Nc2ccccc21 [Compound 23d, 3-((3-Phenylpropyl)amino)-4H-benzo[e][1,2,4]thiadiazine 1,1-dioxide]",0%,–,–,–,–
"O=c1[nH]cc(F)c(=O)[nH]1 [5-Fluorouracil, reference compound]",–,–,7.06 ± 0.8 µM,1.03,SI (Selectivity Index) (TNBC MDA-MB-468 cells; listed as 5-fluorouracil): 1
"O=S1(=O)N=C(NCc2ccccc2)Nc2ccc(Br)cc21 [Compound 21c, 3-(Benzylamino)-7-bromo-4H-benzo[e][1,2,4]thiadiazine 1,1-dioxide]",36 ± 9%,–,–,–,–
